Reference: paper PMC10473532 (PLOS ONE, 2023)
Where two headings read alike, the source gives them in different places.

Experiments:
human β1-AR = target: T1, human β1-AR (Homo sapiens, UniProt P08588); assay: cAMP accumulation in CHO-K1 cells expressing human β1-AR; type: cell-based;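 note: cells transiently transfected with a β1-AR expression plasmid, seeded in 96-well plates and assayed for cAMP about 24 h after transfection across agonist concentration–response curves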
T1 construct: expressed in transfected cells; host or cells: CHO-K1 cells, transient transfection with pCI-Neo plasmid (Lipofectamine 2000)
T1 sequence (P08588 whole entry): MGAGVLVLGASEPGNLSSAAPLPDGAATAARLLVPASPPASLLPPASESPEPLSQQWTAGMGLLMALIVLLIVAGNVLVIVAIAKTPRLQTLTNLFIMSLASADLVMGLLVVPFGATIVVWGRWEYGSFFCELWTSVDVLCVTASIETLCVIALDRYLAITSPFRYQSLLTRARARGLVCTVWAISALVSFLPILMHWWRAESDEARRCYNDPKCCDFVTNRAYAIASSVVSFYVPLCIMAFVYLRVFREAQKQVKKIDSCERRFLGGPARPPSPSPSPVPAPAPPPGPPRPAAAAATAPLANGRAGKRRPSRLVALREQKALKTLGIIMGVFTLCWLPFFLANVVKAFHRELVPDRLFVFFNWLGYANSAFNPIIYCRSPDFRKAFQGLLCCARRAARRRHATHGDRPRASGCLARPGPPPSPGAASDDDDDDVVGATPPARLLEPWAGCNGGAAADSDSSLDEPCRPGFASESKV
Experimental: (§1) Chinese hamster ovary (CHO)-K1 cells (DS Pharma Biomedical Co., Ltd., Osaka, Japan) were cultured in Ham’s F-12 medium containing 10% fetal bovine serum under 5% CO2 at 37°C. For cAMP assay, 2×10^5 cells/mL were inoculated onto a 96-well plate at 100 μL/well. […] The cells were cultured for about 24 h and used for β-AR transfection (see below). The DNA sequences encoding β1-AR (P08588.2), β2-AR (NP_000015.1), or β3-AR (NP_000016.1) were cloned into a pCI-Neo expression vector (Promega, WI, USA). CHO-K1 cells expressing β1-AR, β2-AR, or β3-AR were constructed by transfection with the appropriate plasmid DNA (β1-, β2-, or β3-AR) using Lipofectamine 2000 (Life Technologies Japan Ltd., Tokyo, Japan), according to the manufacturer’s instructions. […] Lipofectamine was diluted with Opti-MEM (0.5 μL Lipofectamine/25 μL Opti-MEM) and incubated for 5 min at room temperature. Solutions containing plasmid DNA and Lipofectamine, respectively, were mixed in equal amounts and incubated for 20 min at room temperature. […] The transfected CHO-K1 cells were then cultured for about 24 h and used for the following experiments. Similar experiments were performed after reducing the amounts of transfected plasmid DNA to 0.05 and 0.025 μg.
(§2) Cells that had been cultured for about 24 h after transfection were subjected to cAMP assay.
(§3) In the cAMP assay, the half-maximal effective concentration (EC50) value was calculated for each agonist based on its concentration–response curve using GraphPad Prism 6.0 nonlinear regression analysis.

[1] = unbound plasma concentrations at once-daily 50 mg clinical dose; type: in vivo, human; conditions: for Cmax,u (unbound maximum plasma concentration): calculated from Cmax and plasma-protein-binding rate; for Cmin,u (unbound minimum plasma concentration): calculated from Cmin and plasma-protein-binding rate
β1-AR = target: β1-AR; parameters: method as in PMID 22430195; conditions: binding assays; read-out: inhibition constant (Ki) β1-AR; cited from earlier work
β2-AR = target: β2-AR; parameters: method as in PMID 22430195; conditions: binding assays; read-out: inhibition constant (Ki) β2-AR; cited from earlier work
β3-AR = conditions: recent study comparing vibegron and mirabegron; cited from earlier work
[2] = system: isolated rat bladder strips; parameters: method as in PMID 24213882; conditions: cited from earlier work
human β2-AR = human β2-AR (Homo sapiens, UniProt P07550, E27Q/G16R); assay: cAMP accumulation in CHO-K1 cells expressing human β2-AR; conditions: for Intrinsic activity β2-AR: isoproterenol max = 1.00
Experimental: as §1, §2, §3

human β3-AR = human β3-AR (Homo sapiens, UniProt P13945); assay: cAMP accumulation in CHO-K1 cells expressing human β3-AR; conditions: for EC50: EC50 β3-AR; for β3-AR selectivity vs β1-AR / β3-AR selectivity vs β2-AR: comparison between EC50 values; for cAMP activity at Cmax,u / cAMP activity at Cmin,u: from dose-response curve, β3-AR cells TF 0.025 μg/well;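 for all read-outs here: CHO-K1 cells transiently transfected with a β-AR expression plasmid, cAMP assayed roughly 24 h post-transfection, values derived from agonist concentration–response curves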
human β3-AR, sequence (P13945 whole entry): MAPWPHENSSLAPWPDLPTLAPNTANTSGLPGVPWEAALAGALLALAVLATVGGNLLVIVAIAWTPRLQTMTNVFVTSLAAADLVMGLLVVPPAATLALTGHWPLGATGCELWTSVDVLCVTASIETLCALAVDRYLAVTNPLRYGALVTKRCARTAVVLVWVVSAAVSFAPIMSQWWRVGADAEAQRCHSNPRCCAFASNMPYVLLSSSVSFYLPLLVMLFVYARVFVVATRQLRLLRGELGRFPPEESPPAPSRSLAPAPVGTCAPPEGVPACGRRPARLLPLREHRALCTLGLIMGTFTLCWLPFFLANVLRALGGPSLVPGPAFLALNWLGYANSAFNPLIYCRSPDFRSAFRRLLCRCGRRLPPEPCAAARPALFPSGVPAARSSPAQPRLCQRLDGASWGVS
Experimental: as §1, §2, §3

[3] = 52-week, cited from earlier work
[4] = therapeutic doses, clinical trials; cited from earlier work
[5] = CHO-K1, TF 0.1 μg/well plasmid DNA, cAMP accumulation, read-out: EC50 β1-AR
[6] = TF 0.025 μg/well, isoproterenol max = 1.00
[7] = TF 0.025 μg/well, read-out: EC50 β1-AR
[8] = TF 0.05 μg/well, isoproterenol max = 1.00
[9] = TF 0.05 μg/well, read-out: EC50 β1-AR
[10] = TF 0.1 μg/well, maximal response of isoproterenol = 1.00
[11] = EC50 β2-AR, CHO-K1, TF 0.1 μg/well plasmid DNA, cAMP accumulation
[12] = CHO-K1, TF 0.1 μg/well plasmid DNA, cAMP accumulation
[13] = TF 0.1 μg/well, 347 fmol/mg, concentration producing 50% of the maximal response induced by isoproterenol

Row | EC50 (human β1-AR; [5]) [nM] | Intrinsic activity β1-AR (human β1-AR; [6]) | EC50 (human β1-AR; [7]) [nM] | Intrinsic activity β1-AR (human β1-AR; [8]) | EC50 (human β1-AR; [9]) [nM] | Intrinsic activity β1-AR (human β1-AR; [10]) | EC50 (human β2-AR; [11]) [nM] | EC50 (human β2-AR; EC50 β2-AR, TF 0.025 μg/well) [nM] | EC50 (human β2-AR; EC50 β2-AR, TF 0.05 μg/well) [nM] | Intrinsic activity β2-AR (human β2-AR; TF 0.05 μg/well) | EC50 (human β3-AR; [12]) [nM] | EC50 (human β3-AR; TF 0.025 μg/well) [nM] | EC50 (human β3-AR; TF 0.05 μg/well) [nM] | Iso50 (human β3-AR; TF 0.025 μg/well, 116 fmol/mg) [nM] | Iso50 (human β3-AR; TF 0.05 μg/well, 222 fmol/mg) [nM] | Intrinsic activity β3-AR (human β3-AR; [8]) | Iso50 (human β3-AR; [13]) [nM] | Intrinsic activity β3-AR (human β3-AR; [10]) | β3-AR selectivity vs β1-AR (human β3-AR; TF 0.1 μg/well) | β3-AR selectivity vs β2-AR (human β3-AR; TF 0.1 μg/well) | Structure (SMILES) | other results
1 | 594 ± 122 | (0.25 ± 0.03) | > 10000 | (0.38 ± 0.02) | > 10000 | (0.59 ± 0.02) | 570 ± 235 | > 10000 | > 10000 | (0.31 ± 0.05) | 1.15 ± 0.24 | 4.17 ± 0.89 | 2.81 ± 0.6 | 26.9 ± 7.51 | 4.45 ± 0.66 | (0.84 ± 0.04) | 1.32 ± 0.26 | (0.94 ± 0.02) | 517 | 496 | Nc1nc(CC(=O)Nc2ccc(CCNC[C@H](O)c3ccccc3)cc2)cs1 [Mirabegron, mirabegron] | Cmax,u (unbound maximum plasma concentration) [1]: 20 nM; Cmin,u (unbound minimum plasma concentration) [1]: 3 nM; Ki (β1-AR): 383 nM; Ki (β2-AR): 977 nM; IA (Emax) (β3-AR): 80.4%; attenuation of bladder relaxant effect after pretreatment, washout and fresh addition [2]: did not produce such attenuation; Iso50 (human β3-AR; TF 0.025 μg/well, 116 fmol/mg, listed as mirabegron): 26.9 nM; Intrinsic activity β3-AR (human β3-AR; TF 0.05 μg/well, isoproterenol max = 1.00, listed as mirabegron): 0.84; Intrinsic activity β3-AR (human β3-AR; TF 0.1 μg/well, maximal response of isoproterenol = 1.00, listed as mirabegron): 0.94; cAMP activity at Cmax,u (human β3-AR): about 53%; cAMP activity at Cmin,u (human β3-AR): about 27%
2 | > 10000 | (0.04 ± 0.01) | > 10000 | (0.11 ± 0.02) | > 10000 | (0.33 ± 0.03) | 2270 ± 1340 | > 10000 | > 10000 | (0.32 ± 0.05) | 80.8 ± 12.6 | 1520 ± 950 | 398 ± 104 | 943 ± 244 | 303 ± 60.7 | (1.00 ± 0.07) | 81.5 ± 15.4 | (0.99 ± 0.02) | >124 | 28.1 | Cc1cc(OCC(=O)O)c(C)cc1CCN[C@@H](C)[C@H](O)c1ccc(O)cc1 [Ritobegron, ritobegron] | Iso50 (human β3-AR; TF 0.025 μg/well, 116 fmol/mg, listed as ritobegron): 943 nM; Intrinsic activity β3-AR (human β3-AR; TF 0.05 μg/well, isoproterenol max = 1.00, listed as ritobegron): 1.00; Intrinsic activity β3-AR (human β3-AR; TF 0.1 μg/well, maximal response of isoproterenol = 1.00, listed as ritobegron): 0.99
3 |  |  |  |  |  |  |  |  |  |  |  |  |  |  |  |  |  |  |  |  | CC(Cc1ccc(O)cc1)NCC(O)c1cc(O)cc(O)c1 (centres unmarked) [fenoterol] | attenuation of bladder relaxant effect after pretreatment, washout and fresh addition [2]: marked attenuation of the bladder relaxant effect
4 | 588 ± 105 | (0.25 ± 0.06) | > 10000 | (0.28 ± 0.04) | > 10000 | (0.60 ± 0.04) | > 10000 | > 10000 | > 10000 | (0.20 ± 0.02) | 27.6 ± 9.08 | 83.6 ± 29 | 85.1 ± 5.84 | 252 ± 78.4 | 119 ± 27.1 | (0.91 ± 0.10) | 31.0 ± 10.8 | (0.96 ± 0.03) | 21.3 | >362 | O=C(O)c1cccc(-c2cccc(NCCNC[C@H](O)c3cccc(Cl)c3)c2)c1 [Solabegron, solabegron] | Iso50 (human β3-AR; TF 0.025 μg/well, 116 fmol/mg, listed as solabegron): 252 nM; Intrinsic activity β3-AR (human β3-AR; TF 0.05 μg/well, isoproterenol max = 1.00, listed as solabegron): 0.91; Intrinsic activity β3-AR (human β3-AR; TF 0.1 μg/well, maximal response of isoproterenol = 1.00, listed as solabegron): 0.96
5 | > 10000 | (0.00 ± 0.00) | > 10000 | (0.02 ± 0.01) | > 10000 | (0.10 ± 0.01) | > 10000 | > 10000 | > 10000 | (0.09 ± 0.03) | 1.26 ± 0.4 | 12.5 ± 2.41 | 3.83 ± 0.93 | 22.5 ± 14.5 | 3.74 ± 0.73 | (1.00 ± 0.03) | 1.26 ± 0.29 | (0.93 ± 0.05) | >7937 | >7937 | O=C(Nc1ccc(C[C@@H]2CC[C@H]([C@H](O)c3ccccc3)N2)cc1)[C@@H]1CCc2nccc(=O)n21 [Vibegron] | EC50 (human β1-AR; TF 0.1 μg/well, read-out: EC50 in cells expressing β1-ARs): > 10000 nM; β1-AR agonist activity (human β1-AR; cells TF 0.05 μg/well (245 fmol/mg)): no β1-AR agonist activity; Cmax,u (unbound maximum plasma concentration) [1]: 56 nM; Cmin,u (unbound minimum plasma concentration) [1]: 14 nM; IA (Emax) (β3-AR): 99.2%; attenuation of efficacy ([3]; 50 mg and 100 mg): not observed; vital signs (systolic blood pressure, diastolic blood pressure, and pulse) ([3]; supratherapeutic dose 100 mg): did not affect vital signs; incidence of increased blood pressure and hypertension [4]: does not affect the incidence of increased blood pressure and hypertension; EC50 (human β2-AR; EC50 in cells expressing β2-ARs, TF 0.1 μg/well): > 10000 nM; β2-AR agonist activity (human β2-AR; lowest β2-AR density 108 fmol/mg): no β2-AR agonist activity; Iso50 (human β3-AR; TF 0.025 μg/well, 116 fmol/mg, listed as vibegron): 22.5 nM; Intrinsic activity β3-AR (human β3-AR; TF 0.05 μg/well, isoproterenol max = 1.00, listed as vibegron): 1.00; β3-AR selectivity, higher than for β1-ARs (human β3-AR; TF 0.1 μg/well): > 7937 fold; β3-AR selectivity, higher than for β2-ARs (human β3-AR; TF 0.1 μg/well): > 7937 fold; Intrinsic activity β3-AR (human β3-AR; TF 0.1 μg/well, maximal response of isoproterenol = 1.00, listed as vibegron): 0.93; cAMP activity at Cmax,u (human β3-AR): about 82%; cAMP activity at Cmin,u (human β3-AR): ~59%
6 |  |  |  |  |  |  |  |  |  |  |  |  |  | 78.0 ± 10.9 | 37.9 ± 6.40 | (0.96 ± 0.02) | 11.8 ± 1.78 |  |  |  | CC(C)NC[C@H](O)c1ccc(O)c(O)c1 [Isoproterenol, (–)-isoprenaline (+)-bitartrate] | 
